Results reported in paper PMC11784839, “Monoaminergic neurotransmitters are bimodal effectors of tau aggregation” (Science Advances, 2025).

Target: tau (Homo sapiens, UniProt P10636)
Assay: MCE Phenols Library screening, tau biosensor cell seeding assay (AvZ)
Type: cell-based
Settings: for Z repl 1 / Z Repl 2: Z score; for Z repl 1 / raw data 1: replicate 1; for Z Repl 2 / raw data 2: replicate 2
[1] = average Z score of two replicates, Phenols Library screen
[2] = average Z score of the two replicates, MCE Phenols Library screen
[3] = average Z score of the two replicates, tau seeding
[4] = average puncta of the two replicates

tau, sequence (P10636 623-695 limits assumed): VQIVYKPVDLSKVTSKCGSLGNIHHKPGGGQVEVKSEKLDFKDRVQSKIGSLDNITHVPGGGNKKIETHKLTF

| Z repl 1 | Z Repl 2 | av Z [1] | av puncta (average of raw data 1 and 2) | raw data 1 (puncta) | raw data 2 (puncta) | av Z [2] | av puncta [4] | raw data 1 (raw puncta) | raw data 2 (raw puncta) | av Z (average Z score of the two replicates, tau biosensor seeding, MCE Phenols Library screen) | SMILES | av Z [3] |
| --- | --- | --- | --- | --- | --- | --- | --- | --- | --- | --- | --- | --- |
| 0.131 | -0.067 | 0.032 | 19987.6 | 27927.2 | 12048 |  |  |  |  |  | O=C1C[C@@H](c2ccc(O[C@@H]3O[C@H](CO)[C@@H](O)[C@H](O)[C@H]3O)cc2)Oc2cc(O)ccc21 [Liquiritin] |  |
| -1.337 | -0.834 |  | 7079.11 | 10304.3 | 3853.96 | -1.085 |  |  |  |  | O=C(/C=C/c1ccc(O)c2c1[C@H](C(=O)O)[C@@H](c1ccc(O)c(O)c1)O2)O[C@H](Cc1ccc(O)c(O)c1)C(=O)O [Lithospermic acid] |  |
| -0.527 | 0.435 | -0.046 | 18718.9 | 20023.7 | 17414.1 |  |  |  |  |  | COc1ccc(CCC(=O)c2ccc(O)cc2)c(OC)c1 [Loureirin A] |  |
| 1.015 | 0.248 |  | 26974.5 | 38536.8 | 15412.2 |  |  |  |  |  | COc1cc(OC)c(CCC(=O)c2ccc(O)cc2)c(OC)c1 [Loureirin B] | 0.631 |
| 0.331 | -0.667 | -0.168 | 17984.5 | 30325.1 | 5643.99 |  |  |  |  |  | O=C1c2ccccc2C(=O)c2c1cc(O)c(CO)c2O [Lucidin] |  |
| -0.6 | -0.013 |  |  |  |  | -0.307 | 15884.9 | 19142 | 12627.8 |  | O=C(O)[C@H]1O[C@@H](Oc2cc(O)c3c(=O)cc(-c4ccc(O)c(O)c4)oc3c2)[C@H](O)[C@@H](O)[C@@H]1O [Luteolin 7-O-glucuronide] |  |
| -0.224 | 0.189 | -0.018 | 19220 | 23659 | 14781.1 |  |  |  |  |  | O=C(CCCCCCCCc1ccc(O)c(O)c1)c1c(O)cccc1O [Malabaricone C] |  |
| -0.381 | -0.64 |  |  | 21773.2 | 5935.58 | -0.51 | 13854.4 |  |  |  | COc1ccc(-c2oc3c(CCC(C)(C)O)c(O[C@@H]4O[C@H](CO)[C@@H](O)[C@H](O)[C@H]4O)cc(O)c3c(=O)c2O)cc1 [Maohuoside A] |  |
| 0.781 | 1.032 |  | 29752.2 | 35719.4 | 23785 |  |  |  |  | 0.906 | C[C@@H]1O[C@@H](OC[C@H]2O[C@@H](Oc3c(-c4ccc(O)cc4)oc4cc(O)cc(O)c4c3=O)[C@H](O[C@@H]3O[C@@H](C)[C@H](O)[C@@H](O)[C@H]3O)[C@@H](O)[C@H]2O)[C@H](O)[C@H](O)[C@H]1O [Mauritianin] |  |
| -1.304 | -0.878 |  | 7038.23 | 10691.8 | 3384.65 | -1.091 |  |  |  |  | O=c1cc(-c2ccc(O)cc2)oc2cc(O)c([C@@H]3O[C@H](CO)[C@@H](O)[C@H](O)[C@H]3O[C@@H]3O[C@H](CO)[C@@H](O)[C@H](O)[C@H]3O)c(O)c12 [Meloside A] |  |

| SMILES | Z repl 1 | Z Repl 2 | av Z [1] | av puncta (average of raw data 1 and 2) | raw data 1 (puncta) | raw data 2 (puncta) | av Z [2] | av puncta [4] | raw data 1 (raw puncta) | raw data 2 (raw puncta) | av Z (average Z score of the two replicates, tau biosensor seeding, MCE Phenols Library screen) | av Z [3] |
| --- | --- | --- | --- | --- | --- | --- | --- | --- | --- | --- | --- | --- |
| Oc1cc(O)c2ccc(-c3ccc(O)c(O)c3)[o+]c2c1.[Cl-] [Luteolinidin (chloride)] | -0.952 | -1.154 |  | 7678.85 | 14921.6 | 436.094 | -1.053 |  |  |  |  |  |
| C=CCc1ccc(O)c(-c2cc(CC=C)ccc2O)c1 [Magnolol] | 0.295 | 1.074 |  | 27065.9 | 29891.7 | 24240.1 |  |  |  |  |  | 0.685 |
